Data from publication PMC6804157, “Synthesis, Physicochemical Properties, and Biological Activities of 4-(S-Methyl-N-(2,2,2-Trifluoroacetyl)Sulfilimidoyl) Anthranilic Diamide” (Molecules, 2019).
Several values for one entry are separate records, joined by “and”; a condition that tells them apart may be missing. Equal values may be shown once. Read-outs that look alike come from different tables or passages of the source.

Experiments:
[1] = format: in vitro ADME; settings: PAMPA
Method: (§1) Because we believed that the physicochemical properties of newly-prepared diamides play important roles in their insecticidal activities, the studies were extended to investigate the bioavailability of organosulfur-based crop-protecting agents 14, 15a, 15b, 16a, and 16b in terms of plant systemic properties and membrane permeability. As references, their properties of chlorantraniliprole and cyantraniliprole were also measured.
(§2) [37] The physicochemical measurements for determinations of equilibrium solubility, log P, and PAMPA permeability were performed by Drug Discovery Platform Technology Team, KRICT, Korea.
(§3) Table S3. Physical properties of organosulfur-substituted anthranilic […]
(§4) Entry X Y Log P c,d Permeability e […]
(§5) aMethod for determination of equilibrium solubility: μSOL 25; bat 25 ℃ and pH 7.4; cUsing ACD / Labs T3 method (pH – metric); dfor graphs, please see the supporting information, eMethod for determination of […]

[2] = pH-metric log P (ACD/Labs T3 method); format: physicochemical
Method: as §1
[39] For LogP, Using ACD/Labs T3 method (pH—metric), for graphs; please see the Supplementary materials.
as §3, §4, §5

[3] = tested on: third instar larvae of Spodoptera litura; experiment: whole plant or invertebrate; format: in vivo; settings: for mortality at 25 ppm / mortality at 50 ppm: Spodoptera litura
Method: For the practical test, newly-prepared compounds 14–16 were evaluated for their insecticidal activities against the third instar larvae of Spodoptera litura according to the reported leaf-dip method.
[35] According to the literature 3a, 3b, and 3d methods, the insecticidal assays were performed by Kyung Nong Co. Ltd., Korea. In detail, please see the Supplementary materials.
Table S1 and S2: Larvicidal activity against Spodoptera (14 and 15a)
The lavicidal activities of synthesized compounds were evaluated by the leaf-dip procedure. 6 The aqueous solution of prepared compounds and chlorantraniliprole in acetone (H 2O : acetone = 95 : 5) were sprayed to a cabbage leave placed on moistened filter paper (disc, diameter 8.8 cm) in petri dishes. After allowing to dry, the dishes were infested with 10 Spodoptera litura (third-instar). After 1, 2, 3, and 4 days, percentage of mortalities was evaluated. The treatments were replicated three times. For negative control, larvicidal activities were 0 % at each time. Ref. is chlorantraniliprole as a positive control.
Table S1. Larvicidal activity depend on time against the 3 rd instar larvae of Spodoptera litura
Entry Compd Concentration Larvicidal activity (%) at 24 h
Entry Compd Concentration Larvicidal activity (%) at 48 h

[4] = Equilibrium solubility (μSOL); format: physicochemical; settings: 25 °C, thermodynamic from solid
Method: as §1, §2, §3, §4, §5

[5] = 24 h, read-out: Larvicidal activity (%) at 24 h, Average, 24 h, 50 ppm, average of three replicates
[6] = 24 h, read-out: Larvicidal activity (%) at 24 h, replicate 1, 24 h, 50 ppm
[7] = 24 h, read-out: Larvicidal activity (%) at 24 h, replicate 2, 24 h, 50 ppm
[8] = 24 h, read-out: Larvicidal activity (%) at 24 h, replicate 3, 24 h, 50 ppm
[9] = 48 h, read-out: Larvicidal activity (%) at 48 h, Average, 48 h, 50 ppm, average of three replicates
[10] = 48 h, read-out: Larvicidal activity (%) at 48 h, replicate 1, 48 h, 50 ppm
[11] = 48 h, read-out: Larvicidal activity (%) at 48 h, replicate 2, 48 h, 50 ppm
[12] = 48 h, read-out: Larvicidal activity (%) at 48 h, replicate 3, 48 h, 50 ppm
[13] = 72 h, read-out: Larvicidal activity (%) at 72 h, replicate 1, 72 h, 50 ppm
[14] = 72 h, read-out: Larvicidal activity (%) at 72 h, replicate 2, 72 h, 50 ppm
[15] = 72 h, read-out: Larvicidal activity (%) at 72 h, replicate 3, 72 h, 50 ppm
[16] = 96 h, read-out: Larvicidal activity (%) at 96 h, replicate 1, 96 h, 50 ppm
[17] = 96 h, read-out: Larvicidal activity (%) at 96 h, replicate 2, 96 h, 50 ppm
[18] = 96 h, read-out: Larvicidal activity (%) at 96 h, replicate 3, 96 h, 50 ppm
[19] = read-out: Larvicidal Activity (%) at Time (h) 72 h, third instar larvae of S. litura, 72 h, concentration of 14 and 15a 50 ppm
[20] = read-out: Larvicidal Activity (%) at Time (h) 96 h, third instar larvae of S. litura, 96 h, concentration of 14 and 15a 50 ppm
[21] = third instar larvae of S. litura, 96 h, concentration of 14 and 15a 50 ppm

Compound: CNC(=O)c1cc(Cl)cc(C)c1NC(=O)c1cc(Br)nn1-c1ncccc1Cl [Chlorantraniliprole, chlorantraniliprole, reference compound]
- Permeability [1]: - 4.3 ± 0.046
- logP ([2]; ACD/Labs T3 method (pH-metric), read-out: Log P): 5.25
- Eating area (%) ([3]; 25 ppm): 0–5%
- mortality at 25 ppm ([3]; 24 h, read-out: Larvicidal activity (%) at 24 h, replicate 2, 24 h, 25 ppm): 30%
- mortality at 25 ppm ([3]; 48 h, read-out: Larvicidal activity (%) at 48 h, Average, 48 h, 25 ppm, average of three replicates): 86.7%
- mortality at 25 ppm ([3]; 48 h, read-out: Larvicidal activity (%) at 48 h, replicate 1, 48 h, 25 ppm): 90%
- mortality at 25 ppm ([3]; 48 h, read-out: Larvicidal activity (%) at 48 h, replicate 2, 48 h, 25 ppm): 80%
- mortality at 25 ppm ([3]; 48 h, read-out: Larvicidal activity (%) at 48 h, replicate 3, 48 h, 25 ppm): 90%
- mortality at 25 ppm ([3]; 72 h, read-out: Larvicidal activity (%) at 72 h, Average, 72 h, 25 ppm, average of three replicates): 100%
- mortality at 25 ppm ([3]; 72 h, read-out: Larvicidal activity (%) at 72 h, replicate 1, 72 h, 25 ppm): 100%
- mortality at 25 ppm ([3]; 72 h, read-out: Larvicidal activity (%) at 72 h, replicate 2, 72 h, 25 ppm): 100%
- mortality at 25 ppm ([3]; 72 h, read-out: Larvicidal activity (%) at 72 h, replicate 3, 72 h, 25 ppm): 100%
- mortality at 25 ppm ([3]; 96 h, read-out: Larvicidal activity (%) at 96 h, Average, 96 h, 25 ppm, average of three replicates): 100%
- mortality at 25 ppm ([3]; 96 h, read-out: Larvicidal activity (%) at 96 h, replicate 1, 96 h, 25 ppm): 100%
- mortality at 25 ppm ([3]; 96 h, read-out: Larvicidal activity (%) at 96 h, replicate 2, 96 h, 25 ppm): 100%
- mortality at 25 ppm ([3]; 96 h, read-out: Larvicidal activity (%) at 96 h, replicate 3, 96 h, 25 ppm): 100%
- mortality ([3]; read-out: Larvicidal activity (%) at 24 h, replicate 2, 24 h, 25 ppm, listed as Ref.): 20%
- mortality ([3]; read-out: Larvicidal activity (%) at 48 h, Average, 48 h, 25 ppm, average of three replicates, listed as Ref.): 66.7%
- mortality ([3]; read-out: Larvicidal activity (%) at 48 h, replicate 2, 48 h, 25 ppm, listed as Ref.): 70%
- mortality ([3]; read-out: Larvicidal activity (%) at 72 h, Average, 72 h, 25 ppm, average of three replicates): 100%
- mortality ([3]; read-out: Larvicidal activity (%) at 72 h, replicate 1, 72 h, 25 ppm): 100%
- mortality ([3]; read-out: Larvicidal activity (%) at 72 h, replicate 2, 72 h, 25 ppm): 100%
- mortality ([3]; read-out: Larvicidal activity (%) at 72 h, replicate 3, 72 h, 25 ppm): 100%
- mortality ([3]; read-out: Larvicidal activity (%) at 96 h, Average, 96 h, 25 ppm, average of three replicates): 100%
- mortality ([3]; read-out: Larvicidal activity (%) at 96 h, replicate 1, 96 h, 25 ppm): 100%
- mortality ([3]; read-out: Larvicidal activity (%) at 96 h, replicate 2, 96 h, 25 ppm): 100%
- mortality ([3]; read-out: Larvicidal activity (%) at 96 h, replicate 3, 96 h, 25 ppm): 100%
- solubility ([4]; aqueous buffer, μSOL, at 25 ℃ and pH 7.4, read-out: Solubility (Equilibrium)): 21.5 ± 1.59 µM
- solubility ([4]; pH 7.4, aqueous buffer): 10.4 ± 0.771 µg/mL

Compound: CNC(=O)c1cc(SC)cc(C)c1NC(=O)c1cc(Br)nn1-c1ncccc1Cl [Compound 14, 3-Bromo-1-(3-chloropyridin-2-yl)-N-(2-methyl-6-(methylcarbamoyl)-4-(methylthio)phenyl)-1H-pyrazole-5-carboxamide]
- Permeability [1]: - 4.3 ± 0.047
- logP [2]: 3.45
- mortality at 50 ppm [3, 5]: 0%
- mortality at 50 ppm [3, 6]: 0%
- mortality at 50 ppm [3, 7]: 0%
- mortality at 50 ppm [3, 8]: 0%
- mortality at 50 ppm [3, 9]: 13.3%
- mortality at 50 ppm [3, 10]: 20%
- mortality at 50 ppm [3, 11]: 0%
- mortality at 50 ppm [3, 12]: 20%
- mortality at 50 ppm [3, 13]: 70%
- mortality at 50 ppm [3, 14]: 30%
- mortality at 50 ppm [3, 15]: 40%
- mortality at 50 ppm [3, 16]: 80%
- mortality at 50 ppm [3, 17]: 70%
- mortality at 50 ppm [3, 18]: 70%
- mortality [3, 19]: 46.7%
- mortality [3, 20]: 73.3%
- Eating Area (%) 96 h [3, 21]: 5–10%
- solubility ([4]; pH 7.4, aqueous buffer): 5.4 µM and 2.67 µg/mL

Compound: CNC(=O)c1cc(S(C)=NC(=O)C(F)(F)F)cc(C)c1NC(=O)c1cc(Br)nn1-c1ncccc1Cl (stereo not drawn) [Compound 15a, 3-Bromo-1-(3-chloropyridin-2-yl)-N-(2-methyl-4-(S-methyl-N-(2,2,2-trifluoroacetyl)sulfinimidoyl)-6-(methylcarbamoyl)phenyl)-1H-pyrazole-5-carboxamide]
- Permeability [1]: - 4.5 ± 0.059
- logP [2]: 3.74
- mortality at 50 ppm [3, 5]: 0%
- mortality at 50 ppm [3, 6]: 0%
- mortality at 50 ppm [3, 7]: 0%
- mortality at 50 ppm [3, 8]: 0%
- mortality at 50 ppm [3, 9]: 0%
- mortality at 50 ppm [3, 10]: 0%
- mortality at 50 ppm [3, 11]: 0%
- mortality at 50 ppm [3, 12]: 0%
- mortality at 50 ppm ([3]; 72 h, read-out: Larvicidal Activity (%) at Time (h) 72 h, third instar larvae of S. litura, 72 h, concentration of 14 and 15a 50 ppm): 46.7%
- mortality at 50 ppm [3, 13]: 50%
- mortality at 50 ppm [3, 14]: 40%
- mortality at 50 ppm [3, 15]: 50%
- mortality at 50 ppm ([3]; 96 h, read-out: Larvicidal Activity (%) at Time (h) 96 h, third instar larvae of S. litura, 96 h, concentration of 14 and 15a 50 ppm): 53.3%
- mortality at 50 ppm [3, 16]: 50%
- mortality at 50 ppm [3, 17]: 50%
- mortality at 50 ppm [3, 18]: 60%
- Eating Area (%) 96 h [3, 21]: 5–10%
- solubility ([4]; pH 7.4, aqueous buffer): 397 µM and 241 µg/mL

Compound: CNC(=O)c1cc([S+](C)[O-])cc(C)c1NC(=O)c1cc(Br)nn1-c1ncccc1Cl (stereo not drawn) [Compound 15b, 3-bromo-1-(3-chloropyridin-2-yl)-N-(2-methyl-6-(methylcarbamoyl)-4-(methylsulfinyl)phenyl)-1H-pyrazole-5-carboxamide]
- Permeability [1]: - 4.8 ± 0.037
- logP [2]: 2.59
- mortality [3, 19]: 0%
- mortality [3, 20]: 0%
- Eating Area (%) 96 h [3, 21]: >30%
- solubility ([4]; pH 7.4, aqueous buffer): 486 µM and 248 µg/mL

Compound: CNC(=O)c1cc(S(C)(=O)=NC(=O)C(F)(F)F)cc(C)c1NC(=O)c1cc(Br)nn1-c1ncccc1Cl (stereo not drawn) [Compound 16a, 3-Bromo-1-(3-chloropyridin-2-yl)-N-(2-methyl-4-(S-methyl-N-(2,2,2-trifluoroacetyl)sulfonimidoyl)-6-(methylcarbamoyl)phenyl)-1H-pyrazole-5-carboxamide]
- Permeability [1]: - 4.7 ± 0.075
- logP [2]: 4.95
- mortality [3, 19]: 0%
- mortality [3, 20]: 0%
- Eating Area (%) 96 h [3, 21]: >30%
- solubility ([4]; pH 7.4, aqueous buffer): 397 µM and 247 µg/mL

Compound: CNC(=O)c1cc(S(C)(=O)=O)cc(C)c1NC(=O)c1cc(Br)nn1-c1ncccc1Cl [Compound 16b, 3-Bromo-1-(3-chloropyridin-2-yl)-N-(2-methyl-6-(methylcarbamoyl)-4-(methylsulfonyl)phenyl)-1H-pyrazole-5-carboxamide]
- Permeability [1]: - 4.5 ± 0.030
- logP [2]: 3.04
- mortality [3, 19]: 0%
- mortality [3, 20]: 0%
- Eating Area (%) 96 h [3, 21]: >30%
- solubility ([4]; pH 7.4, aqueous buffer): 124 µM and 65.6 µg/mL

Compound: CNC(=O)c1cc(C#N)cc(C)c1NC(=O)c1cc(Br)nn1-c1ncccc1Cl [Cyantraniliprole, cyantraniliprole, reference compound]
- Permeability [1]: - 4.4 ± 0.077
- logP [2]: 3.5
- solubility ([4]; pH 7.4, aqueous buffer): 378 µM and 179 µg/mL
